Literature values in US20200115358A1, “ICARIIN AND ICARITIN DERIVATIVES” (H. LEE MOFFITT CANCER CENTER AND RESEARCH INSTITUTE, INC., priority 2016, published 2020).

Test system: MDSCs

Compound	inflammatory responses associated with MDSCs
COc1ccc(-c2oc3c(CCC(C)(C)O)c(O)cc(O)c3c(=O)c2O)cc1 [ICT]	effectively inhibit
Icariin	effectively inhibit
